#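 96-well plates; 48 h exposure; 5 concentrations. Endpoints by linear interpolation between flanking doses. Not reached: highest tested concentration assigned. At the GI50, growth is halved. TGI: concentration producing complete growth inhibition.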
# Experiments:
# Assay in all cases: growth of human tumour cells (NCI), 48 h
# MDA-MB-435 = tested on: MDA-MB-435
# HS 578T breast = tested on: HS 578T breast
# UACC-62 melanoma = tested on: UACC-62 melanoma
# OVCAR-8 ovarian = tested on: OVCAR-8 ovarian
# LOX IMVI melanoma = tested on: LOX IMVI melanoma
# MDA-MB-231 breast = tested on: MDA-MB-231 breast
# NCI-H23 lung = tested on: NCI-H23 lung
# SW-620 colon = tested on: SW-620 colon
# HCT-116 colon = tested on: HCT-116 colon
# M14 melanoma = tested on: M14 melanoma
# CAKI-1 renal = tested on: CAKI-1 renal
# RPMI-8226 leukemia = tested on: RPMI-8226 leukemia
# 786-0 renal = tested on: 786-0 renal
# UO-31 renal = tested on: UO-31 renal
# COLO 205 colon = tested on: COLO 205 colon
# SK-MEL-28 melanoma = tested on: SK-MEL-28 melanoma
# IGROV1 ovarian = tested on: IGROV1 ovarian
# PC-3 prostate = tested on: PC-3 prostate
# OVCAR-4 ovarian = tested on: OVCAR-4 ovarian
# MCF7 breast = tested on: MCF7 breast
# SK-MEL-2 melanoma = tested on: SK-MEL-2 melanoma
# NCI-H226 lung = tested on: NCI-H226 lung
# RXF 393 renal = tested on: RXF 393 renal
# OVCAR-5 ovarian = tested on: OVCAR-5 ovarian
# EKVX NSCLC = tested on: EKVX NSCLC
# SK-OV-3 ovarian = tested on: SK-OV-3 ovarian
# A549 NSCLC = tested on: A549 NSCLC
# MOLT-4 leukemia = tested on: MOLT-4 leukemia
# HT29 colon = tested on: HT29 colon
# SF-295 CNS = tested on: SF-295 CNS
# HCC-2998 colon = tested on: HCC-2998 colon
# BT-549 breast = tested on: BT-549 breast
# TK-10 renal = tested on: TK-10 renal
# NCI-H522 lung = tested on: NCI-H522 lung
# DU-145 prostate = tested on: DU-145 prostate
# NCI/ADR-RES ovarian = tested on: NCI/ADR-RES ovarian
# SR leukemia = tested on: SR leukemia
# T-47D breast = tested on: T-47D breast
# U251 CNS = tested on: U251 CNS
# A498 renal = tested on: A498 renal
# HOP-62 NSCLC = tested on: HOP-62 NSCLC
# SF-268 CNS = tested on: SF-268 CNS
# SNB-19 CNS = tested on: SNB-19 CNS
# SN12C renal = tested on: SN12C renal
# K-562 leukemia = tested on: K-562 leukemia
# UACC-257 melanoma = tested on: UACC-257 melanoma
# HCT-15 colon = tested on: HCT-15 colon
# SK-MEL-5 melanoma = tested on: SK-MEL-5 melanoma
# NCI-H460 lung = tested on: NCI-H460 lung
# ACHN renal = tested on: ACHN renal
# SNB-75 CNS = tested on: SNB-75 CNS
# CCRF-CEM leukemia = tested on: CCRF-CEM leukemia
# SF-539 CNS = tested on: SF-539 CNS
# OVCAR-3 ovarian = tested on: OVCAR-3 ovarian
# HOP-92 NSCLC = tested on: HOP-92 NSCLC
# HL-60(TB) leukemia = tested on: HL-60(TB) leukemia
# KM12 colon = tested on: KM12 colon
smiles,measurement,setting,value
CCN(CC)c1ccc(C2=NN(C(C)=O)C(c3cc(OC)c(OC)c(OC)c3)C2)cc1 (stereo unspecified),GI50,MDA-MB-435,0.166 µM
same,TGI,MDA-MB-435,0.363 µM
same,GI50,HS 578T breast,0.348 µM
same,TGI,HS 578T breast,26.6 µM
same,GI50,UACC-62 melanoma,0.308 µM
same,TGI,UACC-62 melanoma,13.6 µM
same,GI50,OVCAR-8 ovarian,0.795 µM
same,TGI,OVCAR-8 ovarian,11.9 µM
same,GI50,LOX IMVI melanoma,0.568 µM
same,TGI,LOX IMVI melanoma,16 µM
same,GI50,MDA-MB-231 breast,1.24 µM
same,TGI,MDA-MB-231 breast,6.9 µM
same,GI50,NCI-H23 lung,0.87 µM
same,TGI,NCI-H23 lung,17.4 µM
same,GI50,SW-620 colon,0.368 µM
same,TGI,SW-620 colon,14.4 µM
same,GI50,HCT-116 colon,0.349 µM
same,TGI,HCT-116 colon,13 µM
same,GI50,M14 melanoma,0.418 µM
same,TGI,M14 melanoma,6.07 µM
same,GI50,CAKI-1 renal,0.134 µM
same,TGI,CAKI-1 renal,21 µM
same,GI50,RPMI-8226 leukemia,0.18 µM
same,TGI,RPMI-8226 leukemia,0.579 µM
same,GI50,786-0 renal,0.491 µM
same,TGI,786-0 renal,13.3 µM
same,GI50,UO-31 renal,1.13 µM
same,TGI,UO-31 renal,21 µM
same,GI50,COLO 205 colon,0.307 µM
same,TGI,COLO 205 colon,1.16 µM
same,GI50,SK-MEL-28 melanoma,0.819 µM
same,TGI,SK-MEL-28 melanoma,19.1 µM
same,GI50,IGROV1 ovarian,0.769 µM
same,TGI,IGROV1 ovarian,33.6 µM
same,GI50,PC-3 prostate,0.339 µM
same,TGI,PC-3 prostate,12.2 µM
same,GI50,OVCAR-4 ovarian,0.583 µM
same,TGI,OVCAR-4 ovarian,29.2 µM
same,GI50,MCF7 breast,0.317 µM
same,TGI,MCF7 breast,11.4 µM
same,GI50,SK-MEL-2 melanoma,2.37 µM
same,TGI,SK-MEL-2 melanoma,26.1 µM
same,GI50,NCI-H226 lung,1.74 µM
same,TGI,NCI-H226 lung,11.8 µM
same,GI50,RXF 393 renal,0.38 µM
same,TGI,RXF 393 renal,2.43 µM
same,GI50,OVCAR-5 ovarian,1.45 µM
same,TGI,OVCAR-5 ovarian,15.3 µM
same,GI50,EKVX NSCLC,0.6 µM
same,TGI,EKVX NSCLC,11 µM
same,GI50,SK-OV-3 ovarian,0.41 µM
same,TGI,SK-OV-3 ovarian,10.6 µM
same,GI50,A549 NSCLC,0.89 µM
same,TGI,A549 NSCLC,22.5 µM
same,GI50,MOLT-4 leukemia,0.341 µM
same,TGI,MOLT-4 leukemia,3.57 µM
same,GI50,HT29 colon,0.354 µM
same,TGI,HT29 colon,1.68 µM
same,GI50,SF-295 CNS,0.258 µM
same,TGI,SF-295 CNS,1.46 µM
same,GI50,HCC-2998 colon,1.05 µM
same,TGI,HCC-2998 colon,8.04 µM
same,GI50,BT-549 breast,0.667 µM
same,TGI,BT-549 breast,7.9 µM
same,GI50,TK-10 renal,0.549 µM
same,TGI,TK-10 renal,17 µM
same,GI50,NCI-H522 lung,0.307 µM
same,TGI,NCI-H522 lung,2.84 µM
same,GI50,DU-145 prostate,0.399 µM
same,TGI,DU-145 prostate,2.28 µM
same,GI50,NCI/ADR-RES ovarian,0.247 µM
same,TGI,NCI/ADR-RES ovarian,0.81 µM
same,GI50,SR leukemia,0.0708 µM
same,TGI,SR leukemia,0.685 µM
same,GI50,T-47D breast,0.511 µM
same,TGI,T-47D breast,22.6 µM
same,GI50,U251 CNS,0.406 µM
same,TGI,U251 CNS,11.5 µM
same,GI50,A498 renal,0.344 µM
same,TGI,A498 renal,4.13 µM
same,GI50,HOP-62 NSCLC,3.96 µM
same,TGI,HOP-62 NSCLC,24.2 µM
same,GI50,SF-268 CNS,0.867 µM
same,TGI,SF-268 CNS,20.9 µM
same,GI50,SNB-19 CNS,0.476 µM
same,TGI,SNB-19 CNS,13.3 µM
same,GI50,SN12C renal,1.15 µM
same,TGI,SN12C renal,16.2 µM
same,GI50,K-562 leukemia,0.689 µM
same,TGI,K-562 leukemia,> 100 µM
same,GI50,UACC-257 melanoma,16 µM
same,TGI,UACC-257 melanoma,39.8 µM
same,GI50,HCT-15 colon,0.441 µM
same,TGI,HCT-15 colon,12.1 µM
same,GI50,SK-MEL-5 melanoma,0.378 µM
same,TGI,SK-MEL-5 melanoma,5.05 µM
same,GI50,NCI-H460 lung,0.371 µM
same,TGI,NCI-H460 lung,4.71 µM
same,GI50,ACHN renal,0.563 µM
same,TGI,ACHN renal,23 µM
same,GI50,SNB-75 CNS,0.233 µM
same,TGI,SNB-75 CNS,3.59 µM
same,GI50,CCRF-CEM leukemia,0.304 µM
same,TGI,CCRF-CEM leukemia,1.42 µM
same,GI50,SF-539 CNS,0.283 µM
same,TGI,SF-539 CNS,1.16 µM
same,GI50,OVCAR-3 ovarian,0.36 µM
same,TGI,OVCAR-3 ovarian,11 µM
same,GI50,HOP-92 NSCLC,1.82 µM
same,TGI,HOP-92 NSCLC,20.3 µM
same,GI50,HL-60(TB) leukemia,0.209 µM
same,TGI,HL-60(TB) leukemia,0.541 µM
same,GI50,KM12 colon,0.349 µM
same,TGI,KM12 colon,12.1 µM
C=C1C(=O)OC2C1C(=O)C/C(C)=C/CCC1(C)OC21 (stereo unspecified),TGI,MDA-MB-435,31.1 µM
same,TGI,HS 578T breast,> 100 µM
same,TGI,UACC-62 melanoma,66.8 µM
same,TGI,OVCAR-8 ovarian,56.2 µM
same,TGI,LOX IMVI melanoma,36.7 µM
same,TGI,MDA-MB-231 breast,38.3 µM
same,TGI,NCI-H23 lung,38.8 µM
same,TGI,SW-620 colon,40.8 µM
same,TGI,HCT-116 colon,33.5 µM
same,TGI,M14 melanoma,31.7 µM
same,TGI,CAKI-1 renal,28.6 µM
same,TGI,RPMI-8226 leukemia,31.7 µM
same,TGI,786-0 renal,31.8 µM
same,TGI,UO-31 renal,28.4 µM
same,TGI,COLO 205 colon,18 µM
same,TGI,SK-MEL-28 melanoma,31.6 µM
same,TGI,IGROV1 ovarian,44.9 µM
same,TGI,PC-3 prostate,33.3 µM
same,TGI,OVCAR-4 ovarian,46 µM
same,TGI,MCF7 breast,29.2 µM
same,TGI,SK-MEL-2 melanoma,35.8 µM
same,TGI,NCI-H226 lung,39.2 µM
same,TGI,RXF 393 renal,31.9 µM
same,TGI,OVCAR-5 ovarian,33 µM
same,TGI,EKVX NSCLC,61.2 µM
same,TGI,SK-OV-3 ovarian,> 100 µM
same,TGI,A549 NSCLC,37.8 µM
same,TGI,MOLT-4 leukemia,47 µM
same,TGI,HT29 colon,43.2 µM
same,TGI,SF-295 CNS,> 100 µM
same,TGI,HCC-2998 colon,35.3 µM
same,TGI,BT-549 breast,54.6 µM
same,TGI,TK-10 renal,30.8 µM
same,TGI,NCI-H522 lung,12 µM
same,TGI,DU-145 prostate,32.1 µM
same,TGI,NCI/ADR-RES ovarian,99.4 µM
same,TGI,SR leukemia,> 100 µM
same,TGI,T-47D breast,32.2 µM
same,TGI,U251 CNS,37.7 µM
same,TGI,A498 renal,49.6 µM
same,TGI,HOP-62 NSCLC,28 µM
same,TGI,SF-268 CNS,50.8 µM
same,TGI,SNB-19 CNS,> 100 µM
same,TGI,SN12C renal,42.6 µM
same,TGI,K-562 leukemia,74 µM
same,TGI,UACC-257 melanoma,41.3 µM
same,TGI,HCT-15 colon,28.6 µM
same,TGI,SK-MEL-5 melanoma,34.5 µM
same,TGI,NCI-H460 lung,39.7 µM
same,TGI,ACHN renal,22.2 µM
same,TGI,SNB-75 CNS,46.7 µM
same,TGI,CCRF-CEM leukemia,> 100 µM
same,TGI,SF-539 CNS,29.3 µM
same,TGI,OVCAR-3 ovarian,31.8 µM
same,TGI,HOP-92 NSCLC,41.7 µM
same,TGI,HL-60(TB) leukemia,7.23 µM
same,TGI,KM12 colon,53.3 µM

# — PubChem BioAssay (NCI)
